Among the data in patent publication US9314468B2, “Chemokine receptor modulators” (Altiris Therapeutics, Inc., priority 2008, dated 2016) are IC50 and inhibition values, retold here.

The experiment addresses CXCR4 (Homo sapiens (Human), UniProt P61073). Briefly: Functional calcium mobilization assay (SDF-1α induced). Type of experiment: cell-based. As to conditions: for IC50: CEM cells, SDF-1α challenge at EC80-EC90, read-out: Ca Flux IC50; for inhibition at 1 µM: CCRF-CEM, read-out: % inhibition at 1 μM. Here is the method:
Functional modulation of CXCR4 was determined by calcium mobilization assay using leukemic lymphoid CEM cells, which naturally express high levels of CXCR4. Generally, the assay is carried out as follows: Cells are grown in vitro to confluency. On the day of the assay, cells are removed from the incubator, culture medium removed and replaced with a calcium sensitive dye (Calcium3 assay kit; Molecular Devices, Sunnyvale, Calif.). The cells are allowed to dye load for 45-60 min at 37° C. in the cell culture incubator and then allowed to equilibrate to room temperature for no more than 15 min before assay.
Compound plates were generated containing up to 3% dimethyl sulfoxide in media kept at room temperature. Test compounds were added to the cells at a 1:3 dilution, and calcium mobilization was measured using a Flex Station fluorescence imager (Molecular Devices). This first read was used to determine direct agonist activation of the CXCR4 receptor by the test compounds. […] Full dose response curves were generated daily for SDF-1a to calculate IC50 concentrations. The IC50 values are reported. In cases, where one was not determined, a percent inhibition at the 1 μM concentration was extrapolated.
Functional calcium mobilization assay was conducted as described in Example 27.

CXCR4, sequence (P61073 whole entry): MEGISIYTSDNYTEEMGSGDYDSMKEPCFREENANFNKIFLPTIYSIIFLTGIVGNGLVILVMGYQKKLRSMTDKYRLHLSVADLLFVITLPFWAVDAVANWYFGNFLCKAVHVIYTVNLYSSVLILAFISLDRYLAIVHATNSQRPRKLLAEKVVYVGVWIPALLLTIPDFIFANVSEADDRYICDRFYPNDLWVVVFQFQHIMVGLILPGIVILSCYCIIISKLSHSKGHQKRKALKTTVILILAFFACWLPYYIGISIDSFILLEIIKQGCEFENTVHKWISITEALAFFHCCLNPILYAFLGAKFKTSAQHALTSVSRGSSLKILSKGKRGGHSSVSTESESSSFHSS

For `O=C1CNCCN1CCCn1c2ccccc2c2ccnc(CN(CCCN3CCNCC3)[C@H]3CCCc4cccnc43)c21`, the IC50 worked out at 0.044 µM.
For `CN(Cc1nccc2c3ccccc3n(CCCN3C(=O)c4ccccc4C3=O)c12)[C@H]1CCCc2cccnc21`, the IC50 stood at 0.217 µM.
`NC1CCN(C(=O)CN(Cc2nccc3c2[nH]c2ccccc23)[C@H]2CCCc3cccnc32)CC1`: the inhibition at 1 µM came out at 0%.
Take `COCCn1c2ccccc2c2ccnc(CN(CCCN3CCNCC3)[C@H]3CCCc4cccnc43)c21`: the IC50 amounted to 0.049 µM.
In the case of `CN(C)C(=O)NCCCCN(Cc1nccc2c1[nH]c1ccccc12)C1CCCc2cccnc21` (centres unmarked), the IC50 stood at 0.038 µM.
Still for that read-out and setting: under `NCCCCN(Cc1nccc2c3ccccc3n(CC(=O)N3CCOCC3)c12)[C@H]1CCCc2cccnc21` [drawing 701] stands 0.079 µM; under `CCN(Cc1nccc2c3ccccc3n(CCCN3C(=O)c4ccccc4C3=O)c12)[C@H]1CCCc2cccnc21`, 1.64 µM.
The same measure, in the same setting: then `c1ccc(Cn2c3ccccc3c3ccnc(CN(CCCN4CCNCC4)[C@H]4CCCc5cccnc54)c32)cc1`, with 0.152 µM.
In the case of `O=C(Cn1c2ccccc2c2ccnc(CN(Cc3ccc(CNCc4ccccn4)cc3)[C@H]3CCCc4cccnc43)c21)N1CCOCC1`, the inhibition at 1 µM was found to be 0%.
As to `c1ccc(CN(CCCCN(Cc2nccc3c2[nH]c2ccccc23)C2CCCc3cccnc32)Cc2ccccn2)nc1` (centres unmarked), the inhibition at 1 µM was determined as 27%.
The same measure, in the same setting: then `c1cnc2c(c1)CCCC2N(CCN1CCOCC1)Cc1nccc2c1[nH]c1ccccc12` (centres unmarked), with 1%; and `O=C(NNc1ccccc1)c1ccc(CN(Cc2nccc3c2[nH]c2ccccc23)[C@H]2CCCc3cccnc32)cc1`, with 0%.
Consider `NCCCCN(Cc1nccc2c3ccccc3n(CCCN3CCNCC3=O)c12)[C@H]1CCCc2cccnc21`, for which the IC50 stood at 0.02 µM.
Still for that read-out and setting: then `O=C(Cn1c2ccccc2c2ccnc(CN(CCCN3CCNCC3)[C@H]3CCCc4cccnc43)c21)NC1CCOCC1`, with 0.026 µM.
On to `NCc1ccc(CN(Cc2nccc3c2[nH]c2ccccc23)[C@H]2CCCc3cccnc32)cc1`, for which the inhibition at 1 µM was found to be 0%.
Turning to `N[C@@H](CCCN(Cc1nccc2c3ccccc3n(CC(=O)N3CCOCC3)c12)[C@H]1CCCc2cccnc21)C(=O)O`, the inhibition at 1 µM was found to be 0%.
As for `CC(C)(C)OC(=O)N(CCCCN(Cc1nccc2c1[nH]c1ccccc12)[C@H]1CCCc2cccnc21)C(=O)OC(C)(C)C`, the inhibition at 1 µM was 19%.
On to `c1cnc2c(c1)CCC[C@@H]2N(Cc1nccc2c1[nH]c1ccccc12)CC1CCCNC1` (some centres unmarked), for which the IC50 was 3.6 µM.
For `O=C1CN(CCCN(Cc2nccc3c4ccccc4n(CCCN4C(=O)c5ccccc5C4=O)c23)[C@H]2CCCc3cccnc32)CCN1`, the IC50 turned out to be 0.138 µM.
On to `NCCCCN(Cc1nccc2c3ccccc3n(Cc3ccccc3)c12)[C@H]1CCCc2cccnc21`, for which the IC50 was determined as 0.047 µM.
The same measure, in the same setting: under `CC(c1ccccn1)N(CCCCN)Cc1nccc2c3ccccc3n(CC(=O)N3CCOCC3)c12` (centres unmarked) stands 0.423 µM; under `NCCCCN(Cc1nccc2c3ccccc3n(CC(=O)N3CCSCC3)c12)[C@H]1CCCc2cccnc21`, 0.078 µM.
On the same count and under the same terms, then `c1cnc2c(c1)CCCC2N(CCCN1CCNCC1)Cc1nccc2c1[nH]c1ccccc12` (centres unmarked), with 0.018 µM; and `NCCCn1c2ccccc2c2ccnc(CN(CCCN3CCNCC3)[C@H]3CCCc4cccnc43)c21`, with 0.005 µM; and `NCCCCN(Cc1nccc2c3ccccc3n(CC(=O)O)c12)[C@H]1CCCc2cccnc21` [drawing 709], with 0.022 µM.
With `O=C1CNCCN1CCCN(Cc1nccc2c3ccccc3n(CC(=O)N3CCOCC3)c12)[C@H]1CCCc2cccnc21`, the inhibition at 1 µM stood at 0%.
`NCCCCN(Cc1cc2c(cn1)[nH]c1ccccc12)C1CCCc2cccnc21` (centres unmarked): the IC50 worked out at 0.069 µM.
`c1cnc2c(c1)CCC[C@@H]2N(CCCN1CCNCC1)Cc1nccc2c3ccccc3n(CC3CC3)c12`: the IC50 was determined as 0.014 µM.
With `N[C@H]1CC[C@@H](CN(Cc2nccc3c4ccccc4n(CC(=O)N4CCOCC4)c23)[C@H]2CCCc3cccnc32)CC1`, the IC50 stood at 1.26 µM.
With `CN1CCN(CCCN(Cc2nccc3c2[nH]c2ccccc23)[C@H]2CCCc3cccnc32)CC1`, the IC50 was 0.206 µM.
For `CN(Cc1nccc2c3ccccc3n(Cc3cnn[nH]3)c12)[C@H]1CCCc2cccnc21`, the inhibition at 1 µM is 0%.
Regarding `CC(C)(C)OC(=O)CN(CCCCN(Cc1nccc2c1[nH]c1ccccc12)[C@H]1CCCc2cccnc21)CC(=O)OC(C)(C)C`, the inhibition at 1 µM was 18%.
Consider `O=C1CN(CCCN(Cc2nccc3c4ccccc4n(CC(=O)N4CCOCC4)c23)[C@H]2CCCc3cccnc32)CCN1`, for which the IC50 was determined as 8.72 µM.
Still for that read-out and setting: under `O=C(CN(Cc1nccc2c1[nH]c1ccccc12)[C@H]1CCCc2cccnc21)N1CCNCC1` stands 1.81 µM; under `NCCCCN(Cc1nccc2c3ccccc3n(CC(=O)NC3CCOCC3)c12)[C@H]1CCCc2cccnc21`, 0.021 µM.
Still for that read-out and setting: under `NCCCCN(Cc1nccc2c3ccccc3n(CCN3CCOCC3)c12)[C@H]1CCCc2cccnc21` stands 0.004 µM.
In the case of `CC(C)(C)OC(=O)[C@@H](N)CCCN(Cc1nccc2c3ccccc3n(CC(=O)N3CCOCC3)c12)[C@H]1CCCc2cccnc21`, the inhibition at 1 µM turned out to be 0%.
For `c1cnc2c(c1)CCCC2N(CCCCNCC1CC1)Cc1nccc2c1[nH]c1ccccc12` (centres unmarked), the IC50 came out at 0.729 µM.
On the same count and under the same terms, then `Cc1cccnc1CN(CCCCN)Cc1nccc2c3ccccc3n(CC(=O)N3CCOCC3)c12`, with 0.583 µM.
`NC/C=C/CN(Cc1nccc2c1[nH]c1ccccc12)[C@H]1CCCc2cccnc21`: the inhibition at 1 µM stood at 20%.
For the compound `NCCCCN(Cc1nccc2c3ccccc3n(CC(N)=O)c12)[C@H]1CCCc2cccnc21` [drawing 765], the IC50 amounted to 0.017 µM.
With `O=C1c2ccccc2C(=O)N1CCCn1c2ccccc2c2ccnc(CN[C@H]3CCCc4cccnc43)c21`, the inhibition at 1 µM was determined as 0%.
For `C[C@@H]1CN(C(=O)Cn2c3ccccc3c3ccnc(CN(CCCCN)[C@H]4CCCc5cccnc54)c32)C[C@H](C)O1` [drawing 744], the IC50 is 0.123 µM.
Take `NCCCCN(Cc1nccc2c3ccccc3n(CC(=O)N3CCCCC3)c12)[C@H]1CCCc2cccnc21`: the 50% inhibitory concentration (IC50) is 0.27 µM.
Same read-out and setting: then `NCCCCN(Cc1nccc2c3ccccc3n(Cc3cccnc3)c12)[C@H]1CCCc2cccnc21`, with 0.481 µM.
Take `O=C(Cn1c2ccccc2c2ccnc(CN(CCCC3CCNCC3)[C@H]3CCCc4cccnc43)c21)N1CCOCC1`: the concentration for half-maximal inhibition (IC50) was found to be 0.124 µM.
Still for that read-out and setting: then `Cn1c(CN(CCCCN)C2CCCc3cccnc32)nnc1-c1ccccc1` (centres unmarked), with 3.2 µM.
For the compound `NCc1ccc(CN(Cc2nccc3c4ccccc4n(CC(=O)N4CCOCC4)c23)[C@H]2CCCc3cccnc32)cc1`, the inhibition at 1 µM amounted to 0%.
On to `NCCCn1c2ccccc2c2ccnc(CN[C@H]3CCCc4cccnc43)c21`, for which the IC50 was 8.89 µM.
Consider `NCCCCN(Cc1nccc2c3ccccc3n(CCCN3CCNCC3)c12)[C@H]1CCCc2cccnc21` [drawing 723], for which the IC50 was 0.015 µM.
On the same count and under the same terms, under `CN(Cc1nccc2c3ccccc3n(CCN)c12)[C@H]1CCCc2cccnc21` stands 0.142 µM; under `NCCCCN(Cc1nccc2c3ccccc3n(CCC3CCOCC3)c12)[C@H]1CCCc2cccnc21`, 0.013 µM; under `CC(C)(C)OC(=O)Cn1c2ccccc2c2ccnc(CN(CCCN3CCNCC3)[C@H]3CCCc4cccnc43)c21` [drawing 743], 0.059 µM.
Take `c1cnc2c(c1)CCCC2N(CCCCN1CCOCC1)Cc1nccc2c1[nH]c1ccccc12` (centres unmarked): the inhibition at 1 µM came out at 49%.
As for `CC(C)(C)OC(=O)Cn1c2ccccc2c2ccnc(CN(CCCCN)[C@H]3CCCc4cccnc43)c21`, the IC50 came out at 0.001 µM.
`c1cnc2c(c1)CCCC2N(CCCCNC1=NCCN1)Cc1nccc2c1[nH]c1ccccc12` (centres unmarked): the IC50 stood at 1.67 µM.
As for `CS(=O)(=O)N1CCC(CCN(Cc2nccc3c2[nH]c2ccccc23)C2CCCc3cccnc32)CC1` (centres unmarked), the inhibition at 1 µM was 5%.
For the compound `c1ccc(CNCCCCN(Cc2nccc3c2[nH]c2ccccc23)C2CCCc3cccnc32)nc1` (centres unmarked), the IC50 worked out at 5.1 µM.
In the case of `c1cnc2c(c1)CCCC2N(CCN1CCNCC1)Cc1nccc2c1[nH]c1ccccc12` (centres unmarked), the inhibition at 1 µM amounted to 0%.
Turning to `NC(=O)NCCCCN(Cc1nccc2c1[nH]c1ccccc12)[C@H]1CCCc2cccnc21`, the IC50 turned out to be 6.67 µM.
For the compound `NCCN(Cc1nccc2c1[nH]c1ccccc12)C1CCCc2cccnc21` (centres unmarked), the inhibition at 1 µM was 0%.
As to `c1cnc2c(c1)CCC[C@@H]2N(CCCN1CCNCC1)Cc1cc2c(cn1)[nH]c1ccccc12`, the IC50 is 0.331 µM.
Regarding `c1ccc(Cn2c3ccccc3c3ccnc(CN[C@H]4CCCc5cccnc54)c32)nc1`, the IC50 is 8.39 µM.
On to `O=C(Cn1c2ccccc2c2ccnc(CN(CCCCNCc3ccncc3)[C@H]3CCCc4cccnc43)c21)N1CCOCC1`, for which the IC50 was 2.83 µM.
`NC/C=C\CN(Cc1nccc2c1[nH]c1ccccc12)[C@H]1CCCc2cccnc21`: the IC50 is 0.949 µM.
With `NCC#CCN(Cc1nccc2c1[nH]c1ccccc12)[C@H]1CCCc2cccnc21`, the inhibition at 1 µM was 0%.
Consider `c1cnc2c(c1)CCCC2N(CCCNC1=NCCN1)Cc1nccc2c1[nH]c1ccccc12` (centres unmarked), for which the inhibition at 1 µM is 6%.
Take `c1cnc2c(c1)CCCC2N(CCCCN1CCNCC1)Cc1nccc2c1[nH]c1ccccc12` (centres unmarked): the IC50 is 1.96 µM.
In the case of `CN(Cc1nccc2c1[nH]c1ccccc12)[C@H]1CCCc2cccnc21`, the inhibition at 1 µM amounted to 0%.
For the compound `Cn1c2ccccc2c2ccnc(CN(CCCCN)[C@H]3CCCc4cccnc43)c21`, the half-inhibitory concentration (IC50) stood at 0.022 µM.
As for `NCCCCN(Cc1nccc2c1[nH]c1cc(F)ccc12)C1CCCc2cccnc21` (centres unmarked), the half-maximal inhibitory concentration (IC50) amounted to 0.565 µM.
